Values joined by “and” are separate entries in the source; they are usually repeats but may differ in a detail not shown here. Identical values can stand only once. ± gives the expanded uncertainty stated by the source.
Experiment: xn = mol fraction of the nth substance listed
Settings: Fluid (supercritical or subcritical phases), Frequency=5 MHz, Pulse-echo method

Structure (SMILES): O=C=O [carbon dioxide] + CO
- speed of sound (298.13 K, 110320 kPa, x1 = 0.7534): 1136.1 ± 1.5 m/s
- speed of sound (298.13 K, 119500 kPa, x1 = 0.8502): 1135.1 ± 1.5 m/s
- speed of sound (298.13 K, 119930 kPa, x1 = 0.925): 1126 ± 1.4 m/s
- speed of sound (298.13 K, 119960 kPa, x1 = 0.925): 1126.1 ± 1.4 m/s
- speed of sound (298.13 K, 119990 kPa, x1 = 0.925): 1125.8 ± 1.4 m/s
- speed of sound (298.13 K, 120000 kPa, x1 = 0.925): 1126 ± 1.4 m/s
- speed of sound (298.13 K, 120120 kPa, x1 = 0.7534): 1168.5 ± 1.5 m/s
- speed of sound (298.13 K, 129960 kPa, x1 = 0.925): 1157.1 ± 1.5 m/s
- speed of sound (298.13 K, 129970 kPa, x1 = 0.925): 1157.2 ± 1.5 m/s and 1157.6 ± 1.5 m/s
- speed of sound (298.13 K, 130000 kPa, x1 = 0.925): 1157.5 ± 1.5 m/s
- speed of sound (298.13 K, 139110 kPa, x1 = 0.7534): 1226.8 ± 1.6 m/s
- speed of sound (298.13 K, 139980 kPa, x1 = 0.925): 1186.8 ± 1.5 m/s and 1187.3 ± 1.5 m/s
- speed of sound (298.13 K, 139990 kPa, x1 = 0.925): 1187.1 ± 1.5 m/s
- speed of sound (298.13 K, 140030 kPa, x1 = 0.925): 1187.4 ± 1.5 m/s
- speed of sound (298.13 K, 140060 kPa, x1 = 0.8502): 1198.2 ± 1.5 m/s
- speed of sound (298.13 K, 149950 kPa, x1 = 0.925): 1215.3 ± 1.6 m/s and 1215.7 ± 1.6 m/s
- speed of sound (298.13 K, 149960 kPa, x1 = 0.925): 1215.5 ± 1.6 m/s
- speed of sound (298.13 K, 149990 kPa, x1 = 0.925): 1215.1 ± 1.6 m/s
- speed of sound (298.13 K, 159590 kPa, x1 = 0.7534): 1284.3 ± 1.6 m/s
- speed of sound (298.13 K, 159960 kPa, x1 = 0.925): 1242.8 ± 1.6 m/s
- speed of sound (298.13 K, 159970 kPa, x1 = 0.925): 1242.8 ± 1.6 m/s
- speed of sound (298.13 K, 159980 kPa, x1 = 0.925): 1242.2 ± 1.6 m/s
- speed of sound (298.13 K, 159990 kPa, x1 = 0.925): 1242.6 ± 1.6 m/s
- speed of sound (298.13 K, 160550 kPa, x1 = 0.8502): 1255.2 ± 1.6 m/s
- speed of sound (298.13 K, 169970 kPa, x1 = 0.925): 1268.9 ± 1.6 m/s
- speed of sound (298.13 K, 169980 kPa, x1 = 0.925): 1268.9 ± 1.6 m/s
- speed of sound (298.13 K, 169990 kPa, x1 = 0.925): 1268.1 ± 1.6 m/s
- speed of sound (298.13 K, 170010 kPa, x1 = 0.925): 1268.7 ± 1.6 m/s
- speed of sound (298.13 K, 178270 kPa, x1 = 0.8502): 1301.3 ± 1.7 m/s
- speed of sound (298.13 K, 179990 kPa, x1 = 0.925): 1293.2 ± 1.6 m/s
- speed of sound (298.13 K, 180020 kPa, x1 = 0.925): 1293.8 ± 1.6 m/s and 1294 ± 1.6 m/s
- speed of sound (298.13 K, 180060 kPa, x1 = 0.925): 1294.1 ± 1.6 m/s
- speed of sound (298.13 K, 180370 kPa, x1 = 0.7534): 1338.1 ± 1.7 m/s
- speed of sound (298.13 K, 189940 kPa, x1 = 0.925): 1316.8 ± 1.7 m/s
- speed of sound (298.13 K, 189950 kPa, x1 = 0.925): 1317.9 ± 1.7 m/s
- speed of sound (298.13 K, 189970 kPa, x1 = 0.925): 1317.8 ± 1.7 m/s
- speed of sound (298.13 K, 190010 kPa, x1 = 0.925): 1317.9 ± 1.7 m/s
- speed of sound (298.14 K, 44940 kPa, x1 = 0.9803): 798 ± 1.1 m/s
- speed of sound (298.14 K, 50050 kPa, x1 = 0.9803): 829.6 ± 1.1 m/s
- speed of sound (298.14 K, 54980 kPa, x1 = 0.9803): 857.8 ± 1.1 m/s
- speed of sound (298.14 K, 60140 kPa, x1 = 0.9803): 885.4 ± 1.2 m/s
- speed of sound (298.14 K, 64990 kPa, x1 = 0.9803): 909.9 ± 1.2 m/s
- speed of sound (298.14 K, 70210 kPa, x1 = 0.9803): 935 ± 1.2 m/s
- speed of sound (298.14 K, 75300 kPa, x1 = 0.9803): 958.1 ± 1.2 m/s
- speed of sound (298.14 K, 80240 kPa, x1 = 0.9803): 979.6 ± 1.3 m/s
- speed of sound (298.14 K, 89800 kPa, x1 = 0.9803): 1018.7 ± 1.3 m/s
- speed of sound (298.14 K, 100450 kPa, x1 = 0.9803): 1059.1 ± 1.4 m/s
- speed of sound (298.14 K, 109890 kPa, x1 = 0.9803): 1092.5 ± 1.4 m/s
- speed of sound (298.14 K, 120160 kPa, x1 = 0.9803): 1126.5 ± 1.4 m/s
- speed of sound (298.14 K, 130400 kPa, x1 = 0.9803): 1158.4 ± 1.5 m/s
- speed of sound (298.14 K, 139810 kPa, x1 = 0.9803): 1185.8 ± 1.5 m/s
- speed of sound (298.14 K, 150170 kPa, x1 = 0.9803): 1215.7 ± 1.6 m/s
- speed of sound (298.14 K, 160470 kPa, x1 = 0.9803): 1243.6 ± 1.6 m/s
- speed of sound (304.19 K, 24950 kPa, x1 = 0.97): 621 ± 0.9 m/s
- speed of sound (304.19 K, 29960 kPa, x1 = 0.97): 668.7 ± 1 m/s
- speed of sound (304.19 K, 34880 kPa, x1 = 0.97): 709.6 ± 1 m/s
- speed of sound (304.19 K, 39930 kPa, x1 = 0.97): 747.2 ± 1 m/s
- speed of sound (304.19 K, 44970 kPa, x1 = 0.97): 781.3 ± 1.1 m/s
- speed of sound (304.19 K, 50020 kPa, x1 = 0.97): 812.8 ± 1.1 m/s
- speed of sound (304.19 K, 54970 kPa, x1 = 0.97): 841.5 ± 1.1 m/s
- speed of sound (304.19 K, 59970 kPa, x1 = 0.97): 868.6 ± 1.1 m/s

From the NIST ThermoML archive (doi:10.1016/j.jct.2016.03.026)
